According to US8309612B2, “Method for treating age-related macular degeneration” (Santen Pharmaceutical Co., Ltd., priority 2007, dated 2012):

Columns and labels:
[1] = tested on: choroidal neovascularization; assay: Rat model of krypton laser-induced choroidal neovascularization; type: in vivo; conditions: for Inhibition rate (%): BID, oral, 12 days, choroidal neovascularization incidence on day 7 after photocoagulation vs vehicle
Protocol: The usefulness of Ebselen was evaluated using a rat model of laser-induced choroidal neovascularization.
A rat was given general anesthesia by intramuscular administration of 1 ml/kg of a mixed solution of a 5% (w/v) ketamine hydrochloride injection solution and a 2% xylazine hydrochloride injection solution (7:1), and a 0.5% (w/v) tropicamide-0.5% phenylephrine hydrochloride ophthalmic solution was instilled into the eyes to cause mydriasis, and then, photocoagulation was performed with a krypton laser photocoagulation apparatus. The photocoagulation was performed in a posterior fundus at eight spots per eye sparsely by focusing on the retinal deep layer avoiding thick retinal blood vessels (coagulation conditions: spot size: 100 μm, output: 100 mW, coagulation time: 0.1 sec). After the photocoagulation, the ocular fundus was photographed, and the site where the laser was irradiated was confirmed. […]
On day 7 after photocoagulation, each rat was given general anesthesia by intramuscular administration of 1 ml/kg of a mixed solution of a 5% (w/v) ketamine hydrochloride injection solution and a 2% xylazine hydrochloride injection solution (7:1), and a 0.5% (w/v) tropicamide-0.5% phenylephrine hydrochloride ophthalmic solution was instilled into the eyes to cause mydriasis, and then, 0.1 ml of a 10% fluorescein solution was injected into the tail vein, and fluorescence fundus photography was performed. In the fluorescence fundus photography, a spot where fluorescence leakage was not observed (absence of neovascularization) was judged as negative, and a spot where fluorescence leakage was observed was judged as positive. When there are two photocoagulation sites where a little fluorescence leakage was observed, they were judged as positive (presence of neovascularization). The choroidal neovascularization incidence rate (%) was calculated from the number of positive spots relative to the eight laser irradiation spots in accordance with Equation 1, and the inhibition rate (%) of the drug to be evaluated was calculated in accordance with Equation 2. […]

[2] = tested on: ARPE-19 cells (a human retinal pigment epithelial cell line); assay: Protective effect on hydrogen peroxide-induced cell damage in ARPE-19 cells; type: cell-based; conditions: for Cell protective effect on hydrogen peroxide-induced cell damage (in words): 6.25 μM or 12.5 μM, hydrogen peroxide 250 μM
Protocol: Oxidative stress causes retinal pigment epithelial dysfunction and is considered to be one of the causes of development or progression of AMD (Proc. Natl. Acad. Sci. USA, 2006; 103: 11282-11287). Therefore, by using ARPE-19 cells (a human retinal pigment epithelial cell line), the protective effect of Ebselen on hydrogen peroxide-induced cell damage was evaluated. In addition, the effects of quercetin and edaravone which are compounds generally known to have an antioxidative activity were also evaluated at the same time, and comparison study was performed.
(§1) ARPE-19 cells were seeded in a 96-well plate at 5×10^3 cells/well and cultured for 24 hours under the conditions of 37° C. in a 5% CO2/95% air atmosphere. As a culture medium for ARPE-19, DMEM/F12 containing 10% fetal bovine serum, 2 mM L-glutamine and 100 U/mL penicillin and 100 μg/mL streptomycin was used. Subsequently, the culture medium was removed and exchanged with a culture medium containing Ebselen, quercetin or edaravone, or a vehicle culture medium. Incidentally, each compound was dissolved in DMSO and diluted to 1000-fold with the culture medium to prepare a culture medium containing each compound at 6.25 μM or 12.5 μM. The vehicle culture medium was prepared by diluting DMSO without containing the compound to 1000-fold with the culture medium. After the cells were cultured for 24 hours under the conditions of 37° C. in a 5% CO2/95% air atmosphere, the culture medium was removed and exchanged with a culture medium containing hydrogen peroxide (250 μM). After the cells were further cultured for 24 hours under the above-mentioned conditions, the cell viability was measured. In the measurement, Cell Counting Kit-8 (Dojin Kagaku) was used.
(§2) The mean±the standard error (%) of the cell viability of each compound-treated group was expressed by taking the mean value of the cell viability of the untreated cells as 100%. The case number in each group is 4.

ARPE-19 cells = assay: Protective effect on HNE-induced cell damage in ARPE-19 cells; type: cell-based, human; conditions: for Cell protective effect on HNE-induced cell damage (in words): 12.5 μM, HNE 100 μM
Source text: It is known that reactive oxygen species promote membrane lipid peroxidation, resulting in production of HNE (Exp. Eye. Res., 2006; 83: 165-175). HNE forms a covalent bond with a cysteine, lysine or histidine side chain of a protein and inhibits the normal function of the protein, and therefore has a high cytotoxic activity (Invest. Opthalmol. Vis. Sci. 2007; 48: 3469-3479). It is reported that an HNE-modified protein is present also in drusen beneath the retina which is considered to be a deposit inducing AMD, and it is considered to cause retinal pigment epithelial cell damage and also considered to be one of the causes of development or progression of a disease attributed to retinal pigment epithelial damage (Mol. Vis., 2005; 11: 1122-1134, Invest. Opthalmol. Vis. Sci., 2003; 44: 3663-3668, FEBS Lett., 2002; 528: 217-221). Therefore, by using ARPE-19 cells, the protective effect of Ebselen on HNE-induced cell damage was evaluated. In addition, the effects of quercetin and edaravone which are compounds generally known to have an antioxidative activity were also evaluated at the same time, and comparison study was performed.
as §1, with “at” for “at 6.25 μM or”, “HNE (100” for “hydrogen peroxide (250”
as §2

[3] = tested on: ischemia-induced neovascularization in hindlimb tissues; conditions: hindlimb tissues of mice; cited from earlier work
[4] = tested on: carotid artery remodeling and neovascularization; conditions: p22phox transgenic mice; cited from earlier work
renal neovascularization = conditions: ZDF rats, repeated administration; cited from earlier work

SMILES	Inhibition rate (%) ([1]; each dose: 5 mg/kg)	Inhibition rate (%) ([1]; each dose: 15 mg/kg)	Effect on choroidal neovascularization (in words) ([1]; rat models of laser-induced choroidal neovascularization, 5 or 15 mg/kg BID oral)	Cell protective effect on hydrogen peroxide-induced cell damage (in words) [2]	Cell protective effect on HNE-induced cell damage (in words) (ARPE-19 cells)	Effect on ischemia-induced neovascularization (in words) [3]	Effect on carotid artery remodeling and neovascularization (in words) [4]	Effect on renal neovascularization (in words) (renal neovascularization)	viability at 6.25 µM ([2]; Homo sapiens, ARPE-19, compound 6.25 μM, 24 h pretreatment, then hydrogen peroxide 250 μM 24 h, untreated cells = 100%, mean ± standard error)	viability at 12.5 µM ([2]; Homo sapiens, ARPE-19, compound 12.5 μM, 24 h pretreatment, then hydrogen peroxide 250 μM 24 h, untreated cells = 100%, mean ± standard error)	viability at 12.5 µM (ARPE-19 cells; Homo sapiens, ARPE-19, compound 12.5 μM, 24 h pretreatment, then HNE 100 μM 24 h, untreated cells = 100%, mean ± standard error)
O=c1c2ccccc2[se]n1-c1ccccc1 [Ebselen, 2-phenyl-1,2-benzisoselenazol-3(2H)-one]	26.9%	28.9%	inhibits choroidal neovascularization	strongly protected the cells against hydrogen peroxide-induced cell damage in a concentration-dependent manner	strongly protected the cells against HNE-induced cell damage	inhibited ischemia-induced neovascularization	inhibited endogenous hydrogen peroxide-induced carotid artery remodeling and neovascularization	renal neovascularization was restored	–	–	–
CC1=NN(c2ccccc2)C(=O)C1 [Edaravone, edaravone]	–	–	–	not found to have a cell protective effect at either concentration	not found to have a cell protective effect	–	–	–	–	–	–
O=c1c(O)c(-c2ccc(O)c(O)c2)oc2cc(O)cc(O)c12 [Quercetin, quercetin]	–	–	–	not found to have a cell protective effect at either concentration	not found to have a cell protective effect	–	–	–	8 ± 0.1%	3.8 ± 0.4%	28.6 ± 0.9%
